Among the data in ChEMBL document CHEMBL1148662, “Activation of mitogen activated protein kinase (MAPK) during D-galactosamine intoxication in the rat liver” (2006) are Activity values, retold here.

The source made the active and inactive calls. The calls are words filed in the database; no cut-off is given here.

In experiment [1] the test system is Rattus norvegicus. The experiment in a line: Increase in plasma glutamate pyruvate transaminase level in Wistar rat at 1 g/kg, ip after 3 hrs relative to control. Format: functional.
Experiment [2] deals with Rattus norvegicus. The experiment is described as follows: Increase in hepatic vitamin C level in Wistar rat at 1 g/kg, ip after 12 hrs relative to control. Format: functional.
Experiment [3] concerns Rattus norvegicus. The experiment in a line: Increase in plasma glutamate pyruvate transaminase level in Wistar rat at 1 g/kg, ip after 6 hrs relative to control. The class given is functional.
The test system of experiment [4] is Rattus norvegicus. The experiment is described as follows: Increase in plasma glutamate pyruvate transaminase level in Wistar rat at 1 g/kg, ip after 12 hrs relative to control. Format: functional.
Experiment [5] concerns Rattus norvegicus. The experiment in a line: Increase in plasma glutamate oxaloacetate transaminase level in Wistar rat at 1 g/kg, ip after 24 hrs relative to control. The class given is functional.
The test system of experiment [6] is Rattus norvegicus. The experiment in a line: Increase in plasma glutamate pyruvate transaminase level in Wistar rat at 1 g/kg, ip after 1.5 hrs relative to control. Format: functional.
The test system of experiment [7] is Rattus norvegicus. The experiment in a line: Increase in plasma glutamate oxaloacetate transaminase level in Wistar rat at 1 g/kg, ip after 1.5 hrs relative to control. The class given is functional.
In experiment [8] the test system is Rattus norvegicus. The experiment is described as follows: Increase in phosphorylated ERK level in Wistar rat at 1 g/kg, ip after 3 hrs relative to control. Format: functional, organism-based.
The subject of experiment [9] is Rattus norvegicus. The experiment is described as follows: Increase in hepatic vitamin C level in Wistar rat at 1 g/kg, ip after 3 hrs relative to control. The class given is functional.
Experiment [10] concerns Rattus norvegicus. The experiment is described as follows: Increase in plasma glutamate oxaloacetate transaminase level in Wistar rat at 1 g/kg, ip after 12 hrs relative to control. The class given is functional.
Experiment [11] has as its system Rattus norvegicus. The experiment is described as follows: Increase in phosphorylated JNK level in Wistar rat at 1 g/kg, ip after 3 hrs relative to control. Format: functional, organism-based.
Experiment [12] deals with Rattus norvegicus. The experiment is described as follows: Increase in hepatic vitamin C level in Wistar rat at 1 g/kg, ip after 6 hrs relative to control. The class given is functional.
The subject of experiment [13] is Rattus norvegicus. The experiment in a line: Increase in plasma glutamate oxaloacetate transaminase level in Wistar rat at 1 g/kg, ip after 3 hrs relative to control. Format: functional.
Experiment [14] has as its system Rattus norvegicus. The experiment is described as follows: Increase in hepatic vitamin C level in Wistar rat at 1 g/kg, ip after 24 hrs relative to control. The class given is functional.
Experiment [15] has as its system Rattus norvegicus. The experiment in a line: Increase in plasma glutamate oxaloacetate transaminase level in Wistar rat at 1 g/kg, ip after 6 hrs relative to control. The class given is functional.
The subject of experiment [16] is Rattus norvegicus. The experiment in a line: Increase in hepatic vitamin C level in Wistar rat at 1 g/kg, ip after 1.5 hrs relative to control. The class given is functional.
The test system of experiment [17] is Rattus norvegicus. The experiment is described as follows: Increase in phosphorylated p38 MAPK level in Wistar rat at 1 g/kg, ip after 6 hrs relative to control. The class given is functional, organism-based.
In experiment [18] the test system is Rattus norvegicus. The experiment is described as follows: Increase in plasma glutamate pyruvate transaminase level in Wistar rat at 1 g/kg, ip after 24 hrs relative to control. The class given is functional.

For the compound `N[C@H]1C(O)O[C@H](CO)C(O)[C@@H]1O` (single isomer, unassigned) [GLUCOSAMINE], the Activity in experiment [1] came to 49.7 nmol/g; in experiment [2], 1104 nmol/g; in experiment [3] it was 295 nmol/g; in experiment [4], 426 nmol/g; in [5], 2560 nmol/g; in [6], 25.8 nmol/g. For the same compound, the Activity in experiment [7] was determined as 52.3 nmol/g; in experiment [9], 1137 nmol/g; in experiment [10], 793 nmol/g; in experiment [12] it was 1118 nmol/g; in experiment [13] it was 124 nmol/g; in experiment [14], 978 nmol/g. Also, the figures for the Activity in [15], in [16] and in [18] were 517 nmol/g, 1571 nmol/g and 1519 nmol/g, respectively. For the same compound, the outcome in experiment [8], in experiment [11] and in experiment [17] was Active.
